Patent publication US11767286B2, “Phenylpropionate compound, preparation method for same, and applications thereof” (SUZHOU PHARMAVAN CO., LTD, priority 2017, dated 2023)
Read-outs that look alike come from different tables or passages of the source.

Experiments:
[1] = tested on: platelet aggregation induced with a platelet activating factor; experiment: Maximum platelet aggregation rate of rabbits, induced with PAF; format: cell-based; settings: rabbit plasma, 4 mg/kg as printed; for inhibition at 4 mg/kg: Oryctolagus cuniculus, Platelet, n=3, read-out: Inhibiton rate on Aggregation; for Maximum Aggregation Rate: n=3
Method: (§1) Effects on maximum platelet aggregation rate of rabbits: 3 Rabbits were anesthetized, and blood was collected from the heart to obtain 14 parts of plasma for each rabbit (1 ml per part of plasma). 7 Parts were induced with ADP to allow platelet aggregation, and 7 parts were induced with a platelet activating factor. After the induction, a solvent, positive control drug aspirin, and 5 samples to be trialed were separately added to the plasma, and maximum platelet aggregation rate was detected with a platelet aggregation meter. The trials were repeated 3 times, and an average was taken. Detected indicator: maximum platelet aggregation rate.
(§2) Table 4 lists results of effects of phenylpropionate compounds (4 mg/kg) on platelet aggregation rate of rabbits (n=3).

[2] = tested on: SD rat model of focal ischemia-reperfusion; experiment: Dose-effect relationship in SD rat model of focal ischemia-reperfusion (MCAO); format: in vivo, SD rats; settings: 4.0 mg/kg, given 2 h after reperfusion, mean ± standard error
Method: In this example, phenylpropionate compounds were studied for dose-effect relationship, with D-bornyl ferulate (administrated at 4.0 mg/kg) and D-tanshinol borneol ester (administrated at 4.0 mg/kg) as positive control drugs. Structures of D-bornyl ferulate (Patent Application No.: 201510243181.5) and D-tanshinol borneol ester compounds are as follows:
Trial method: A cerebral ischemia reperfusion model of middle cerebral artery occlusion (MCAO) was prepared by an internal carotid artery suture method. An animal was anesthetized with 10% chloral hydrate (3.6 mL/kg) and then fixed on an operating table in a supine position. Its skin was disinfected, and a midline incision was made on the neck. The right common carotid artery, external carotid artery, and internal carotid artery were separated, the vagus nerve was gently striped off, and the external carotid artery was ligated and cut. The common carotid artery was clamped at the proximal end. […] The nylon thread was advanced through the bifurcation of the common carotid artery into the internal carotid artery, and then was slowly inserted until there was slight resistance (about 20 mm from the bifurcation) to block all the blood supply to the middle cerebral artery. 2 h after cerebral ischemia, the nylon thread was gently pulled out to restore blood supply for reperfusion, and the neck skin was sutured and disinfected. The animal was put back in a cage and raised. During the modeling operation, animals with abnormal conditions due to anesthesia, surgery, etc. were excluded, and successfully modeled animals were randomly grouped. Schemes were set according to different trial doses, and drug treatment was given 2 h after cerebral ischemia-reperfusion. Death conditions were recorded every day after the surgery, and indicators were evaluated after 48 h. In the whole trial process, general conditions were observed, mainly including: death, coma, breathing, urine and feces traits, hair colors, mental status, vomiting and vomitus, bleeding, convulsion, spasm, etc. Abnormal animals due to unexpected factors were excluded. Finally, unblinding was conducted by a person who made blind trials.
Evaluated indicator: (1) Evaluation of symptoms of neurological deficits: The symptoms of neurological deficits were evaluated by using a modified Bederson 5-point scale. A single-blind method was used for evaluating the symptoms of neurological deficits in rats with brain trauma. That is, a trial designer marked animals in accordance with groups, and an experimenter who scored the symptoms of neurological deficits had no knowledge of how the animals were grouped. After scoring was completed, the scorer submitted scoring results for various marks to the designer, and the designer performed unblinding to obtain scores of animals in each trial group. (2) Measurement of cerebral infarction area: A method reported in the literature was used. An animal was anesthetized with 10% chloral hydrate and decapitated to collect brain. The olfactory bulb, cerebellum and lower brain stem were removed. Blood stains on the surface of the brain were rinsed with normal saline, the residual water stains on the surface were absorbed, and the brain was placed at −80° C. for 7 min. After the brain was taken out, a coronal section was immediately made at downwards and vertical to the sight intersection plane, and brain slices were made every 2 mm backwards. Brain slices were placed in a TTC (20 g/L) dye solution prepared with 0.9% normal saline, and incubated at 37° C. for 90 min. Normal brain tissues were stained deep red, and ischemic brain tissues were pale-white. After rinsed with normal saline, the brain sections were quickly arranged in order from front to back, the residual water stains on the surface were absorbed to dryness, and pictures were taken. Image analysis software was used for statistics on the pictures. […]

[3] = tested on: platelet aggregation induced with ADP; experiment: Maximum platelet aggregation rate of rabbits, induced with ADP; format: cell-based; settings: rabbit plasma, 4 mg/kg as printed, n=3; for inhibition at 4 mg/kg: Oryctolagus cuniculus, Platelet
Method: as §1, §2

[4] = tested on: rats with acute cerebral ischemia-reperfusion; experiment: Cerebral infarction area of rats with acute cerebral ischemia-reperfusion (MCAO, suture method); format: in vivo, SD rats; set-up: Cerebral Infarction Area: unit not given here; settings: n=5; for Cerebral Infarction Area: 4 mg/kg iv 2 h after reperfusion (2 h MCAO), sampled 4 h after administration; for inhibition in vivo at 4 mg/kg: Rattus norvegicus, 4 h, 4 mg/kg iv 2 h after reperfusion, vs solvent control, read-out: Percentage of Cerebral Infarction Area Reduction
Method: (§3) Trial method: Effects on inflammatory factors and blood viscosity of rats with acute cerebral ischemia-reperfusion: 70 Male SD rats underwent an MACO surgery by a suture method, and after the surgery, alive rats were randomly grouped (into 7 groups, the number of successful animals in each group was guaranteed to be 6 to 8). Blood perfusion was recovered 2 h after MCAO, and corresponding trial medicaments were intravenously injected 2 h after blood reperfusion. 4 hours after the administration, blood was collected and the rats were sacrificed to take out brain tissues. The brain tissues and part of the blood were centrifuged to collect serum which was detected for inflammatory factors, and part of the blood was detected for blood viscosity by using a blood viscometer. Detected indicators: cerebral infarction area; inflammatory factors IL-1β and TNF-α; and blood viscosity.
Table 1 lists results of effects of phenylpropionate compounds (4 mg/kg) on cerebral infarction area of rats with acute cerebral ischemia (n=5).

IL-1β = experiment: Inflammatory factor IL-1β in blood and brain tissues of rats with acute cerebral ischemia-reperfusion; format: in vivo, SD rats; settings: 4 mg/kg iv 2 h after reperfusion; 4 h after administration; n=5
Method: as §3
(§4) Table 3 lists results of effects of phenylpropionate compounds (4 mg/kg) on inflammatory factors in blood and brain tissues of rats (n=5).

TNF-α = experiment: Inflammatory factor TNF-α in blood and brain tissues of rats with acute cerebral ischemia-reperfusion; format: in vivo, SD rats; settings: 4 mg/kg iv 2 h after reperfusion; 4 h after administration; n=5
Method: as §3, §4

[5] = tested on: rats with acute cerebral ischemia-reperfusion; experiment: Blood viscosity of rats with acute cerebral ischemia-reperfusion (blood viscometer); format: in vivo, SD rats; set-up: unit not given here; settings: 4 mg/kg iv 2 h after reperfusion; blood 4 h after administration; n=5
Method: as §3
Table 2 lists results of effects of phenylpropionate compounds (4 mg/kg) on blood viscosity of rats (n=5).

[6] = Distribution in brain: plasma and intracerebral concentrations after intravenous injection; format: in vivo; settings: both sexes, rat, rats, 4 mg/kg iv; for Kp at 10 min / Kp at 60 min / Kp at 180 min: brain/plasma, read-out: Brain/Blood Concentration Ratio
Method: In this example, Compounds A to E, D-bornyl ferulate, and D-tanshinol borneol ester were measured for distribution in brain. Structures of D-bornyl ferulate (Patent Application No.: 201510243181.5) and D-tanshinol borneol ester compounds are as follows:
Method for testing distribution in brain: 42 rats with a weight range of 200±20 g were taken. The rats were randomly divided into 7 groups, with 6 rats per group, half male and half female. Rats were fasted with free access to water for 12 h and then intravenously injected with 4 mg/kg of a compound. Rats in the 3 groups were sacrificed through femoral artery bleeding and collected for blood 10 min, 60 min, 180 min after administration, respectively. Brains were taken out, 0.2 g was weighted, and 1 mL of pure water was added for homogenizing. The blood samples and brain homogenate samples were stored at −20° C.
Distribution of Compounds A to E, and D-bornyl ferulate and D-tanshinol borneol ester compounds in brain: Data on concentrations of Compounds A to E, D-bornyl ferulate, and D-tanshinol borneol ester in plasma and intracerebral in rats intravenously injected with 4 mg/kg of Compounds A to E, D-bornyl ferulate, and D-tanshinol borneol ester are listed in Table 9.

[7] = brain, read-out: Mean Intracerebral Concentration
[8] = plasma, read-out: Mean Plasma Concentration

| Compound | inhibition at 4 mg/kg [1] | Maximum Aggregation Rate [1] | inhibition at 4 mg/kg [3] | Maximum Aggregation Rate [3] | Cerebral Infarction Area [4] | inhibition in vivo at 4 mg/kg [4] | IL-1β (IL-1β) | TNF-α (TNF-α) | Blood viscosity, High Shear [5] | Blood viscosity, Low Shear [5] | Kp at 10 min [6] | Kp at 60 min [6] | Kp at 180 min [6] | concentration at 10 min [6, 7] | concentration at 60 min [6, 7] | concentration at 180 min [6, 7] | concentration at 10 min [6, 8] | concentration at 60 min [6, 8] | concentration at 180 min [6, 8] | further results |
| --- | --- | --- | --- | --- | --- | --- | --- | --- | --- | --- | --- | --- | --- | --- | --- | --- | --- | --- | --- | --- |
| CC1(C)[C@@H]2CC[C@@]1(C)[C@@H](OC(=O)[C@H](O)Cc1ccc(O)c(O)c1)C2 [D-tanshinol borneol ester, reference compound] | 33.8% | 47.3 ± 4.53 % | 43.8% | 18.5 ± 4.36 % | 25.6 ± 4.65 | 30.2% | 67.1 ± 8.8 ng/L | 687 ± 35.4 ng/L | 2.76 ± 0.134 | 14.1 ± 0.658 | 0.47 | 2.6 | 3.4 | 1040 ± 168 ng/g | 644 ± 99.7 ng/g | 177 ± 35.2 ng/g | 2210 ± 546 ng/mL | 244 ± 62.4 ng/mL | 52.8 ± 34.1 ng/mL | Score of Symptoms of Neurological Deficits ([2]; 48 h, modified Bederson 5-point scale): 1.98 ± 0.17; Infarction area ([2]; evaluated after 48 h): 22.76 ± 2.42 % |
| COc1cc(CCC(=O)O[C@H]2C[C@H]3CC[C@]2(C)C3(C)C)cc(O)c1O [Compound B] | 55% | 32.1 ± 9.7 % | 46.8% | 17.5 ± 2.84 % | 18.7 ± 7.16 | 49% | 63.4 ± 5.6 ng/L | 645 ± 42.3 ng/L | 2.73 ± 0.122 | 13.9 ± 0.134 | 1.6 | 4.5 | 1.8 | 2490 ± 437 ng/g | 1270 ± 234 ng/g | 247 ± 87.5 ng/g | 1530 ± 581 ng/mL | 285 ± 105 ng/mL | 136 ± 60.4 ng/mL | – |
| COc1cc(CCC(=O)O[C@H]2C[C@H]3CC[C@]2(C)C3(C)C)c(Br)cc1O [Compound D] | 34.6% | 46.7 ± 9.8 % | 55.3% | 14.7 ± 7.42 % | 19.4 ± 4.61 | 47.1% | 53.4 ± 8.9 ng/L | 562 ± 34.2 ng/L | 2.63 ± 0.312 | 13.3 ± 0.354 | 1.6 | 4.6 | 4 | 2260 ± 323 ng/g | 1430 ± 285 ng/g | 485 ± 125 ng/g | 1400 ± 236 ng/mL | 312 ± 115 ng/mL | 120 ± 22.7 ng/mL | – |
